Here are results for one substance from US8669347B2, “Truncated variant of the mammalian target for rapamycin (MTOR) protein” (UCL Business PLC, priority 2007, dated 2014).

The assay has as its system Hek293 stable cell lines. In words: Cell proliferation assay (Resazurin based) of Hek293 stable cell lines. Set-up: species or system human. The note with it: overexpressing stable lines grown 7 days, six independent studies. As to the method: Hek293 stable cell lines, over-expressing mTORβ wt, mTORα wt or EGFP were seeded into a 96 well plate at various densities (250, 500, 1000 and 2000 cells per well) and grown under standard conditions for 7 days. Cell numbers were than measured in each well by a Resosurin based assay. Normalized growth curves for each cell line were calculated using data from six independent experiments (A). Western blot analysis of total cell lysates of stable cell lines with antibodies to c-myc and its transcription targets (B). The level of proteins was densitometrically measured, actin normalized and folds were calculated against EGFP expressing stable cell line (C).
HEK293 stable cell lines, overexpressing mTORβ wt, mTORβ kinase-dead or EGFP were seeded into 96 well plate at various densities (1000, 2000, 4000 and 8000 cells per well) and grown under standard conditions for 5 days. Cell numbers were then measured in each well by Resazurin based assay. Normalized growth curves for each cell line were calculated using data from six independent experiments (A). Western blot analysis of total cell lysates of stable cell lines with antibodies to c-myc and its transcription targets. The level of proteins was densitometrically measured, actin normalized and folds were calculated against EGFP expressing stable cell line (B). […]
(In general: Resazurin is reduced to fluorescent resorufin, in cell work by metabolically active cells.)

Consider “mTORα wt: full-length mammalian target for rapamycin protein, approximately 2549 amino acids (SEQ ID NO: 4)”, for which the “proliferation compared to control (EGFP) cells” value is reported as “no difference in proliferation”.
